Measured values taken from the CombiSolv-Exp solvation set (Vermeire and Green 2021).

Assay: solvent given as SMILES

ClC(Cl)Cl
Details	solvation free energy, 298 K [kcal/mol]
in Brc1cccc2ccccc12	-3.79
in C1CCCC1	-3.87
in C1CCOC1	-5.13
in C1COCCO1	-4.64
in C=CCCCCCCCCCCCCCC	-3.42
in CC#N	-4.31
in CC(=O)CC(C)C	-4.51
in CC(=O)N(C)C	-5.18
in CC(=O)OCc1ccccc1	-4.25
in CC(C)=O	-4.67
in CCC(C)=O	-4.72
in CCCCCCC	-3.62
in CCCCCCCC	-3.52
in CCCCCCCCC=CCCCCCCCC(=O)OCC(COC(=O)CCCCCCCC=CCCCCCCCC)OC(=O)CCCCCCCC=CCCCCCCCC	-4.02
in CCCCCCCCCCCCCC	-3.35
in CCCCCCCCCCCCCCCC	-3.38
in CCCCCCCCCCCCO	-3.65
in CCCCCCCCN(CCCCCCCC)CCCCCCCC	-3.59
in CCCCCCCCO	-3.8
in CCCCCN(CCCCC)CCCCC	-3.82
in CCCCCl	-4.08
in CCCCN(C=O)CCCC	-4.83
in CCCCN(CCCC)CCCC	-3.69
in CCCCO	-4.02
in CCCCOCCCC	-4.16
in CCN(CC)C(C)=O	-5.18
in CCNC(C)=O	-4.57
in CCNC=O	-4.41
in CCO	-4.12
in CCOC(=O)c1ccccc1C(=O)OCC	-4.1
in CCOC(C)=O	-4.61
in CN1CCCC1=O	-5.24
in CN1CCCCC1=O	-5.27
in CNC(C)=O	-4.57
in CO	-4.12
in COC(C)=O	-4.67
in COCOC	-4.27
in CS(C)=O	-4.72
in ClC(Cl)(Cl)Cl	-4
in ClCCCl	-4.17
in NC=O	-2.91
in O	-1.08
in O=C1CCCCC1	-4.73
in S=C=S	-4.15
in [2H]O[2H]	-1.26
in c1ccc2ncccc2c1	-4.41

Cc1cccc(C)c1
Details	solvation free energy, 298 K [kcal/mol]
in CC#N	-5.18
in CC(C)CC(C)(C)C	-5.12
in CC(O)CO	-4.13
in CCCCCCC	-5.39
in CCCCCCCCCCCCCCCC	-5.27
in CCCCCCCCO	-5.16
in CCCCOC(C)=O	-6.06
in CNC=O	-4.82
in COCCO	-5.09
in ClCCCl	-5.98
in NC=O	-3.29
in NCCO	-3.85
in O	-0.78
in O=CN1CCOCC1	-5.03
in OCCO	-3.42
in OCCOCCO	-4.26
in OCCOCCOCCO	-4.4
in c1ccccc1	-5.99

C=C(C)CCCC
Details	solvation free energy, 298 K [kcal/mol]
in C=CCCCCCCCCCCCCCC	-4.04
in O	1.66

FC(F)(F)c1ccccc1C(F)(F)F
Details	solvation free energy, 298 K [kcal/mol]
in O	1.07

Clc1ccc(-c2ccccc2Cl)cc1
Details	solvation free energy, 298 K [kcal/mol]
in CCCCCCCCO	-10
in O	-2.58

CN1C2CCC1CC(OC(=O)C(O)c1ccccc1)C2 (stereo not given)
Details	solvation free energy, 298 K [kcal/mol]
in O	-13.8

CCCc1ccccc1
Details	solvation free energy, 298 K [kcal/mol]
in C1CCOC1	-6.63
in CC#N	-5.61
in CC(C)CC(C)(C)C	-5.89
in CC(C)O	-5.41
in CCCCCC	-5.55
in CCCCCCC	-5.92
in CCCCCCCCCC	-5.23
in CCCCCCCCCCCCCCCC	-5.76
in CCCCCCCCO	-5.58
in CO	-5.31
in NC=O	-3.49
in O	-0.56
in OCCO	-3.65
in OCCOCCO	-4.55
in OCCOCCOCCO	-4.69

O=C(O)C=CC(=O)O
Details	solvation free energy, 298 K [kcal/mol]
in CC(C)=O	-10.2
in CC(C)O	-10.8
in CCCO	-10.6
in CCO	-10.8
in O	-9.96
in O=C1CCCCC1	-9.9

Clc1ccc(Cl)cc1
Details	solvation free energy, 298 K [kcal/mol]
in CCCCCC	-6.06
in CCCCCCC	-5.81
in CCCCCCCCC=CCCCCCCCC(=O)OCC(COC(=O)CCCCCCCC=CCCCCCCCC)OC(=O)CCCCCCCC=CCCCCCCCC	-6.7
in O	-1.01
